Columns and labels:
[1] = test system: MCF-7 (human breast cancer); assay: MTT cytotoxicity assay, MCF-7; type: cell-based; settings: MCF7, means of three experiments, 24 hr, read-out: IC50 MCF-7 (anti-proliferative activity)
Method: (§1) Human tumor cell lines of two different histological origins were used: Caco-2 (human colorectal cancer) and MCF-7 (human breast cancer) which were purchased from the National Cell bank of Pasteur Institute of Iran, Tehran, Iran.
(§2) Stock cell cultures were grown in RPMI 1640 medium (Gibco, USA) supplemented with 10% fetal bovine serum (FBS) and 100 unit per ml of penicillin-streptomycin (Sigma, USA) at 37°C in humidified incubator with 5% CO2 atmosphere. After three day incubation, the cells were detached using 0.25% Trypsin-0.05% EDTA solution (Biogene, Iran), and resuspended in RPMI 1640 medium containing 10% FBS. Cell count and viability was determined by Trypan blue staining followed by hemocytometry.
(§3) After incubation periods, 3-(4,5-Dimethylthiazol-2-yl)-2,5-diphenyltetrazolium bromide , MTT (Sigma, USA) was added to each well at the concentration of 0.5 mg/ml. Subsequently, microtiter plate was incubated for an additional 3 hr at 37°C and each medium was then removed prior to the addition of dimethyl sulfoxide to dissolve the formazan crystal formed by viable cells.

Caco-2 cells = type: cell-based; settings: IC50 concentration, 24 hr; untreated control 9.9
Method: (§4) A suspension of untreated Caco-2 or MCF-7cells (1×10^6 cells/ml) was used as negative control. Both control and test samples of cell cultures were incubated for 24 hr at 37°C and 5% CO2 atmosphere. After 24 hr incubation, adherent cells were collected, washed three times with phosphate-citrate buffer (0.2 M, pH 7.8) and fixed for 24 hr with cool ethanol at 4°C. Propidium iodide was then added to a final concentration of 50 µg/ml for DNA staining and the cells were incubated and light protected at room temperature for 3 hr. The fluorescence of the cells was analyzed in a FACScan flow cytometer (Becton Dickinson, USA). The obtained cytometric data were analyzed using WinMDI 2.8 software (The Scripps Research Institute, USA).

MCF-7 cells = assay: Apoptosis assay (propidium iodide flow cytometry, sub-diploid cells), MCF-7; type: cell-based, human; settings: IC50 concentration, 24 hr; untreated control 12.26
Method: as §4

[2] = test system: Caco-2 (human colorectal cancer); assay: MTT cytotoxicity assay, Caco-2; type: cell-based; settings: means of three experiments, 24 hr, read-out: IC50 Caco-2 (anti-proliferative activity)
Method: as §1, §2, §3

ovine COX-2 = biological target: T1, ovine COX-2 (Ovis aries, UniProt P79208); assay: biochemical; settings: mean of two determinations
T1 construct: purchased Cayman Chemical Company 760111
T1 sequence (P79208 17-603): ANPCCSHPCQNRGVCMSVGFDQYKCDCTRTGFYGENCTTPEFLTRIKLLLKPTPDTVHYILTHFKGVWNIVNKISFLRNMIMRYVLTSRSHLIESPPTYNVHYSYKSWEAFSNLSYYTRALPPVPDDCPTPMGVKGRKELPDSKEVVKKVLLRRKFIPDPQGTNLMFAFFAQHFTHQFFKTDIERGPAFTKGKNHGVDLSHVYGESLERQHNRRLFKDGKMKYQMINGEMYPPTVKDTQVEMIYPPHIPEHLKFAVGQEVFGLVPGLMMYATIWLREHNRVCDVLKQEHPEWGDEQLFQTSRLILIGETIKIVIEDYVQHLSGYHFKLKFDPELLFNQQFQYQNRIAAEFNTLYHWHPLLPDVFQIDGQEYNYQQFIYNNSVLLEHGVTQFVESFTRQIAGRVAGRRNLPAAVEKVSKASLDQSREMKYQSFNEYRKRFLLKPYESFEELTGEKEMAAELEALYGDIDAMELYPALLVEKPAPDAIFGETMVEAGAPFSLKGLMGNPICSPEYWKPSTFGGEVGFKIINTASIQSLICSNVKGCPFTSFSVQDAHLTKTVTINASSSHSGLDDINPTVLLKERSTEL
Description: (§5) The same kit for determination of COX-1 and COX-2 inhibition was used by us previously ([11]).

mice [3] = assay: Acetic acid-induced writhing test; type: in vivo, BALB/c mice; settings: Mus musculus, IP, acetic acid 0.7% 1 hr after compound, writhing counted 30 min
Method: (§6) Animal experiments were carried out using 20-30 g male BALB/c mice purchased from Razi Institute, Mashhad, Iran. Animals were kept in plastic cages at room temperature of 21±2°C and 12 hr light/dark cycle. All experiments were performed according to the National Institute of Health guidelines for the care and use of laboratory animals and to the European Community Directive for the Care and use of Laboratory Animals of 1986 (86/609/EEC), and approved by our Institution’s Animal Care Committee.
The nociceptive responses in mice were investigated using writhing test. […] The number of abdominal constrictions (writhing episode) seen in treated animals was counted during a 30 min period ([12]). Celecoxib and normal saline was respectively used as positive and negative control.

mice [4] = assay: Xylene-induced ear edema test; type: in vivo, BALB/c mice; settings: Mus musculus, IP 30 min before xylene, ears weighed after 2 hr
Method: as §6
The effect of the analogues against acute inflammation was studied using xylene-induced ear edema test in mice.
Thirty minutes later, edema was induced in each group by applying 0.03 ml of xylene to the inner surface of the right ear. After 2 hr, the mice were sacrificed under ether anesthesia and both ears were removed, sized and weighed. The increase in weight caused by the irritant was measured by subtracting the weight of the untreated left ear section from that of the treated right ear sections ([12]).

ovine COX-1 = biological target: T2, ovine COX-1 (Ovis aries, UniProt P05979); assay: biochemical; settings: mean of two determinations
T2 construct: purchased Cayman Chemical Company 760111
T2 sequence (P05979 25-600): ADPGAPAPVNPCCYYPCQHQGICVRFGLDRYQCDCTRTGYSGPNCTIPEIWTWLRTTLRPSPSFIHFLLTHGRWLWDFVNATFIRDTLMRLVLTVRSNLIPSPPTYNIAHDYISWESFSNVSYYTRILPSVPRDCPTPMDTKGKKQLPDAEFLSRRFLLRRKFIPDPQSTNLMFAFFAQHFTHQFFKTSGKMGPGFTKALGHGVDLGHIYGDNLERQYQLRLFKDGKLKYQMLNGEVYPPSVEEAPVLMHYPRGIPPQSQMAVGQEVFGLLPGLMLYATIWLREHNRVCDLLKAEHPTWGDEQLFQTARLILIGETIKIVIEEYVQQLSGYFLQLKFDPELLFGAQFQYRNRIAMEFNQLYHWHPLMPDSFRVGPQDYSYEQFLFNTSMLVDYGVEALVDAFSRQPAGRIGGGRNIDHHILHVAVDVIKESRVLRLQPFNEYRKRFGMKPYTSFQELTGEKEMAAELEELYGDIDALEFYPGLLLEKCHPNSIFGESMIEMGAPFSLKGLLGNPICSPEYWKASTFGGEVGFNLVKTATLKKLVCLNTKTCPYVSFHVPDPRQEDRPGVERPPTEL
Description: as §5

SMILES	IC50 [1] [µM]	Apoptosis% (percent sub-diploid cells), Caco-2 (Caco-2 cells) [%]	Apoptosis% (percent sub-diploid cells), MCF-7 (MCF-7 cells) [%]	IC50 [2] [µM]	IC50 (ovine COX-2) [µM]	melting point [°C]	ED50 (mice [3]) [mg/kg]	ED50 (mice [4]) [mg/kg]	IC50 (ovine COX-1) [µM]
Cc1ccc(-c2cc(C(F)(F)F)nn2-c2ccc(S(N)(=O)=O)cc2)cc1 [Celecoxib, celecoxib, reference compound]	76.3	60	59.1	50.1	–	–	–	–	–
CCSc1ncc(C2SCC(=O)N2c2ccc(Cl)cc2)n1Cc1ccccc1 (centres unmarked) [2b, 2-(1-benzyl-2-ethylthio-5-imidazolyl)-3-(4-chloro-phenyl)-1,3-thiazolidin-4-one]	110	54.4	45.9	82.3	0.71	97 to 98	39.9	73.6	–
CSc1ncc(C2SCC(=O)N2c2ccc(Cl)cc2)n1Cc1ccccc1 (centres unmarked) [2a, 2-(1-benzyl-2-methylthio-5-imidazolyl)-3-(4-chloro-phenyl)-1,3-thiazolidin-4-ones]	121	35	–	106	0.82	95 to 96	15.1	68.3	15.6
CSc1ncc(C2SCC(=O)N2c2ccc(Cl)cc2)n1Cc1ccc(F)cc1 (centres unmarked) [2c, 2-[1-(4-fluorobenzyl)-2-methylthio-5-imidazolyl]-3-(4-chlorophenyl)-1,3-thiazolidin-4-ones]	–	–	–	–	–	94 to 95	8.76	64	–
